Consider six compounds from BindingDB's records for doi:10.1021/np100918z (National Cancer Institute-Frederick, 2011).

pEC50: −log10 of the molar value.

This assay addresses T1, Programmed cell death protein 4 (Homo sapiens, UniProt Q53EL6).
T1 sequence (Q53EL6 whole entry): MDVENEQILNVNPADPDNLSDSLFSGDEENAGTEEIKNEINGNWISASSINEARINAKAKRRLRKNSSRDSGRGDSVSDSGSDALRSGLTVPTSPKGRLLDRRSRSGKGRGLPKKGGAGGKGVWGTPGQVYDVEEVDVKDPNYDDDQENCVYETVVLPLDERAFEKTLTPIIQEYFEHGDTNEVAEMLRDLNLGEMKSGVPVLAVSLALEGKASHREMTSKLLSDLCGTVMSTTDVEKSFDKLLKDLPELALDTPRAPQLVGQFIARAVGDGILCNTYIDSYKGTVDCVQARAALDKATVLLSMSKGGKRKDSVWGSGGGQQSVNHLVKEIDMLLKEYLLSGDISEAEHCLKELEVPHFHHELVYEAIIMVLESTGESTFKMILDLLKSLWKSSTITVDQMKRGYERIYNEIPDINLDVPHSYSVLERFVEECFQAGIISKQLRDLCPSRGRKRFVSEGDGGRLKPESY
The assay can be described thus: Inhibition of TPA-induced degradation of Pdcd4 (amino acid 39-91) expressed in human HEK293 cells assessed as minimum compound concentration required for 50% recovery of Pdcd4-luciferase signal incubated for 8 hrs by luciferase reporter gene assay. On the technique in general: In a reporter assay the amount or activity of a reporter protein is the signal.
Regarding `CCCCCCCCCCCCCCC[C@H](C[C@H](O)C[C@H](O)C[C@H](O)C[C@H](O)C[C@H]1CC=CC(=O)O1)OC(C)=O` [Cryptocaryol B], the pEC50 (as a rule, the EC50 on a negative log10 scale, so that one unit is a factor of ten) was 5.52.

Consider `CCCCCCCCCCCCCCC[C@@H](O)C[C@H](O)C[C@H](O)C[C@H](O)C[C@@H]1OC(=O)C=C[C@@H]1O` [Cryptocaryol E], for which the pEC50 was 5.74.

As for `CCCCCCCCCCCCCCC[C@@H](O)C[C@H](O)C[C@H](O)C[C@H](O)C[C@H](O)C[C@@H]1OC(=O)C=C[C@@H]1O` [Cryptocaryol C], the pEC50 is 5.80.

As to `CCCCCCCCCCCCCCC[C@H](C[C@H](O)C[C@H](O)C[C@H](O)C[C@H](O)C[C@@H]1OC(=O)C=C[C@@H]1O)OC(C)=O` [Cryptocaryol D], the pEC50 is 5.82.

In the case of `CO[C@H]1C[C@@H]2CC[C@@H](C)[C@@](O)(O2)C(=O)C(=O)N2CCCC[C@H]2C(=O)O[C@H]([C@H](C)C[C@@H]2CC[C@@H](O)[C@H](OC)C2)CC(=O)[C@H](C)/C=C(\C)[C@@H](O)[C@@H](OC)C(=O)[C@H](C)C[C@H](C)/C=C/C=C/C=C/1C` [Rapamycin C-7, analog 4], the pEC50 was 7.30.

With `CCCCCCCCCCCCCCC[C@@H](O)C[C@H](O)C[C@H](O)C[C@H](O)C[C@H](O)C[C@H]1CC=CC(=O)O1` [Cryptocaryol A], the pEC50 was 5.31.
